Measured values published in US12233060B2, “Inhibitors of Ataxia-Telangiectasia Mutated and Rad3-related protein kinase (ATR) for use in methods of treating cancer” (THE INSTITUTE OF CANCER RESEARCH: ROYAL CANCER HOSPITAL, priority 2016, dated 2025).

How the values were obtained:
SYO1 cells = assay: DNA fibre analysis, replication fork speed in SYO1 cells; assay type: cell-based, human; conditions: 0.1 μM for two hours; p<0.0001
Experimental: FIG. 10. ATR inhibitors elicit replication fork stress in SS tumour cells. […] Error bars represent SEM from triplicate experiments. p values were derived from Student's t tests. B. Western blot illustrating PARP1 cleavage in SYO1 cells exposed to VX970 for 24 hours. C. Western blot illustrating H2AX phosphorylation (γH2AX) in SYO1 cells exposed to VX970 (0.1 μM). D. Confocal microspcopy images illustrating H2AX phosphorylation in SYO1 cells exposed to VX970 (0.1 μM, 24 hours). E. Bar chart depicting data from (D). Error bars represent SEM from 100 images. p values were derived from Student's t tests. F. Replication fork speeds in SYO1 cells exposed to 0.1 μM VX970 for two hours. p value was derived from a Student's t test. G. Replication fork speeds in HCT116 cells exposed to 0.1 μM VX970 for two hours in the presence and absence of ectopic expression of a SS18-SSX1 fusion protein. p values were derived from Student's t tests. Expression of SS18-SSX1 or exposure to VX970 reduced fork speed. Combined SS18-SSX1 expression and VX970 exposure enhanced the reduction in fork speed. H and I. FACS plots from SYO1 cells exposed to VX970.
ATRi induced cytotoxicity in tumour cells derived from carcinomas is often associated with an increase in replication fork stress.

HCC1143 cells = assay: 384 well plate cell survival after ARID1A siRNA transfection; assay type: cell-based, human; conditions: ARID1A siRNA vs control, five continuous days exposure
Description: FIG. 1. […] A. Structure of VE-821 and schematic describing workflow for parallel VE-821 chemosensitisation screens in MCF12A and HCC1143 cells. B. Scatter plots of VE-821 Drug Effect (DE) Z-scores from all 1280 siRNAs used in the in the chemosensitisation screens. The DE Z-score threshold of −2 (red line) was used for defining candidate synthetic lethal interactions is shown. C. Venn diagram of DE<−2 VE-821 sensitisation hits in MCF12A and HCC1143 cells. Numbers shown indicate number of sensitisation genes. Amongst the 30 genes with DE Z-scores <−2 in both cell lines, seven well-established tumour suppressor genes were identified. D. Bar charts illustrating DE Z-scores for control, non-targeting, siRNAs (siALLSTAR, siCON1, siCON2) and ARID1A siRNAs in the chemosensitisation screens. Values shown are median from triplicate screens and error bars represent SD. […]
A siRNA library was purchased from Dharmacon. […] RNAi screening conditions were optimised and raw CellTitre-Glo (Promega) luminescent viability readings were generated as previously described21. […]
Short-term survival assays were performed in 384-well plates. […] Drug was added 24 h after seeding and cells were continuously exposed to the drug for five days, after which cell viability was estimated using CellTitre-Glo luminescence (Promega). […] Colonies were counted manually. […]

`CNCc1ccc(-c2cc(-c3nc(-c4ccc(S(=O)(=O)C(C)C)cc4)cnc3N)on2)cc1` [VX-970, 5-[4-(Isopropylsulfonyl)phenyl]-3-(3-{4-[(methylamino)methyl]phenyl}-1,2-oxazol-5-yl)-2-pyrazinamine] was tested. Which replication fork speed (SYO1 cells) did it give?
The replication fork speed was “significant reduction in replication fork speed”.

What about the “ATRi sensitivity caused by ARID1A siRNA” value (HCC1143 cells) of the same compound?
Its value is “caused sensitivity”.
